Data on four compounds can be found in patent publication US20250269072A1, “PROCESSES FOR PREPARING RADIOLABELLED CONJUGATES” (CENTENARY INSTITUTE OF CANCER MEDICINE AND CELL BIOLOGY, priority 2021, published 2025).

Where two headings read alike, the source gives them in different places.

For series [1], the system named is proliferating cells. The note with it: cited from earlier work.
Series [2] relates to quiescent endothelial cells. The note with it: quiescent endothelial cells in vitro; cited from earlier work.
For series [3], the system named is angiogenesis. The note with it: in vivo; cited from earlier work.
The conditions of series [4]: cited from earlier work.
Series [5] can be described thus: In vitro stability of labelled NODAGA-GSAO products at room temperature (HPLC). The class given is physicochemical. On the procedure:
The in vitro stability of the complexed product is an important determinant for the potential clinical use of a therapeutic compound. Post-labelling stability was assessed by incubation of the ^175Lu- and ^63Cu-labelled NODAGA-GSAO products at room temperature.
The percentage of labelling at different time-points following formation of the isotope-NODAGA-GSAO complex was measured. Results are shown in FIG. 5 for A) the ^175Lu-labelled product obtained from incubation for 30 minutes at pH 5.0 at 80° C. and B) the ^63Cu-labelled product obtained from incubation for 30 minutes at pH 5.0 at room temperature. At certain time points, aliquots were taken and the labelling (black circles) of NODAGA-GSAO were assessed by HPLC. Data are from one or two (average±S.D. of the two measurements) experiments.

The nature of series [6]: Radiolysis of ^177Lu-CDI after synthesis (radio-HPLC). The class given is physicochemical. On the procedure: Labelling of CDI (54 μg) with ^177Lutetium (^177Lu) was performed in 0.083 M sodium acetate buffer at pH 5.0. 177Lu (500 MBq) and ascorbic acid (0.002 M) were added and the mixture was incubated at 85° C. for 30 min. In a similar reaction, CDI was labelled with ^177Lu in the presence of 0.01 M ascorbic acid and 0.028 M GSH.
The experiments using the radioisotope ^177Lu were performed on a Shimadzu LC-20 series LC system with two LC-20AP pumps, an SPD-20A UV/VIS detector and analysed using the LabLogic Laura software (version 4.2.11.129 SP2). […] The analytical column was an Alltima HP C18 150×4.6 mm 5 μm particle size (Hichrom, Berkshire, UK). The column was equilibrated in a mixture of 0.1% (v/v) trifluoroacetic acid in MiliQ water (mobile phase A) and acetonitrile (mobile phase B; 98/2, v/v). Samples (100 μL) were loaded on the column using the autosampler at room temperature. Products were eluted using a gradient of […] mobile phase B in mobile phase A over 0-18-28-38-42 min (^177Lu) or 0-18-28-32-33 min (^175Lu) at a flowrate of 0.6 mL/min. Absorbance was measured at 210 nm, 256 nm, and 280 nm and radioactivity was detected using a LabLogic Dual Scan-RAM.

Series [7] is described as follows: ^177Lu-CDI dosimetry estimated from ^68Ga-CDI biodistribution and kinetics. Also on record: species or system human. From the text:
The biodistribution and kinetics of ^68Ga-CDI was used to estimate […] dosimetry. […] These are similar to measured renal doses from ^177Lu-dotatate and ^177Lu-PSMA. Based on these estimations and comparability of renal dose to ^177Lu-dotatate and ^177Lu-PSMA, the initial […] level of ^177Lu-CDI will be approximately 2.0 GBq.

Where [8] appears, read: Afshar-Oromieh et al., 4 subjects.

For `N[C@@H](CCC(=O)N[C@@H](CSCC(=O)Nc1ccc([As](O)O)cc1)C(=O)NCC(=O)O)C(=O)O` [GSAO, 4-(N—(S-glutathionylacetyl)amino)phenylarsenous acid], the values for the toxicity entry in series [1] and in series [2] were “toxic to proliferating cells” and “nontoxic to quiescent endothelial cells in vitro”, respectively. For the same compound, the effect on angiogenesis result in series [3] is “inhibits angiogenesis in vivo”.
As for `O=C([O-])CN(CCN(CC(=O)[O-])Cc1cc(CCC(=O)NCCCCCC(=O)NCCCC[C@H](NC(=O)N[C@@H](CCC(=O)O)C(=O)O)C(=O)O)ccc1[O-])Cc1cc(CCC(=O)O)ccc1[O-].[68Ga+3].[OH3+]` [^68Ga PSMA], in series [4] (setting [8]), the mean effective dose is 2.3E-02 mSv/MBq, the renal dose is given as 2.6E-01 mSv/MBq and the urinary bladder dose is on record as 1.3E-01 mSv/MBq. Also, in series [4] (Pfob et al., 5 subjects), the Effective Dose is 2.37E-02 mSv/MBq, the renal dose is 1.21E-01 mSv/MBq and the urinary bladder dose is on record as 1.64E-01 mSv/MBq.
Turning to `O=C(O)CNC(=O)[C@H](CSCC(=O)Nc1ccc([As](O)O)cc1)NC(=O)CC[C@H](NC(=O)CCC1C(=O)[O][175Lu]2[O]C(=O)CN3CCN(CCN1CC3)CC(=O)[O]2)C(=O)O` (stereo partly drawn) [^175Lu-NODAGA-GSAO], the by-products in series [5] (room temperature storage) is 4-7.5 % of total AUC. Moreover, in series [5] (room temperature, after 14 days of storage), the labelling remaining is roughly 90%.
For the compound `O=C(O)CNC(=O)[C@H](CSCC(=O)Nc1ccc([As](O)O)cc1)NC(=O)CC[C@H](NC(=O)CCC1C(=O)[O][177Lu]2[O]C(=O)CN3CCN(CCN1CC3)CC(=O)[O]2)C(=O)O` (stereo partly drawn) [^177Lu-NODAGA-GSAO], the radiolysis after synthesis entry in series [6] ([…] incubation at room temperature, 0.002 M ascorbic acid) is “did not show an increase in radiolysis”. For the same compound, the radiolysis result in series [6] (labelling in presence of 0.01 M ascorbic acid and 0.028 M GSH) was “prevented radiolysis during and up to 72 h post CDI labelling”. In addition, the estimated renal dose in series [7] (combined physical decay and biological clearance model) is 0.36 mGy/MBq; in series [7] (physical decay only model) it was 0.98 mGy/MBq.
